For the assay, the target named is T1, human HPK1 protein (Homo sapiens, UniProt Q92918).
T1 construct: recombinant human HPK1 protein (a.a. 1-346) was expressed in Sf9 insect cells; GST (N); purchased Signalchem M23-11G; host or cells: Sf9 insect cells (baculovirus)
T1 sequence (Q92918 1-346): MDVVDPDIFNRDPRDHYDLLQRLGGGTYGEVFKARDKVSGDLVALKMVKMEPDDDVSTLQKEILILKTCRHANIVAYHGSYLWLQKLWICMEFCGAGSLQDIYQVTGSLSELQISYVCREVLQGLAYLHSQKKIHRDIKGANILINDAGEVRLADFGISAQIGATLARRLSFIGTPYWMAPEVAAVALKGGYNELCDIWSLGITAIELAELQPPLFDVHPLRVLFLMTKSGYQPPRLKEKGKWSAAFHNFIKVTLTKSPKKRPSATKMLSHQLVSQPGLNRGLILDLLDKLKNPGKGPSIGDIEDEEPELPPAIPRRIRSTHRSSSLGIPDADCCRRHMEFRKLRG
Put plainly: Human HPK1 protein TR-FRET assay. The conditions noted are these: 1 mM ATP, Table 20. It is filed as biochemical. The procedure, abridged: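 Read-out was TR-FRET using Eu-labeled anti-phospho-CREB (Ser133) antibody, with the 665/615 nm signal ratio normalised to DMSO-only wells and fitted by a 4-parameter logistic model for IC50. Reactions held 10 nM Sf9-expressed GST-HPK1 (a.a. 1-346), 100 nM CREBtide and 1 mM ATP, run 60 minutes at room temperature, pH 7.5.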
Regarding `CCC1CN(C(=O)Nc2ccc(CN3CCN(CC)CC3)c(C(F)(F)F)c2)Cc2cc(Oc3ncnc4[nH]c(C)cc34)cnc21` (stereo not drawn) [XIV-4], the IC50 was less than 500 nM.

The compound `CC[C@@H]1CN(C(=O)Nc2cnc(CN3CCN(CC)CC3)c(C(F)(F)F)c2)Cc2cc(Oc3ccnc4[nH]ccc34)cnc21` [XIV-9] had an IC50 of less than 500 nM.

The compound `CC[C@H]1CN(C(=O)Nc2cnc(CN3CCN(CC)CC3)c(C(F)(F)F)c2)Cc2cc(Oc3ccnc4[nH]ccc34)cnc21` [XIV-10] registered an IC50 of less than 500 nM.

In the case of `CCN1CCN(Cc2ccc(NC(=O)N3Cc4cc(Oc5ccnc6[nH]c(CO)cc56)cnc4[C@H](C)C3)cc2C(F)(F)F)CC1` [XIV-14], the IC50 was less than 500 nM.

For `CC[C@@H]1CN(C(=O)Nc2ccc(CN3CCN(CC)CC3)c(C(F)(F)F)c2)Cc2cc(Oc3ccnc4[nH]c(C#N)cc34)cnc21` [XIV-19], the IC50 was less than 500 nM.

For the compound `CC[C@H]1CN(C(=O)Nc2ccc(CN3CCN(CC)CC3)c(C(F)(F)F)c2)Cc2cc(Oc3ccnc4[nH]c(C#N)cc34)cnc21` [XIV-20], the IC50 is less than 500 nM.

`CC[C@H]1CN(C(=O)Nc2ccc(CN3CCN(CC)CC3)c(C(F)(F)F)c2)Cc2cc(Oc3ccnc4[nH]c(CCOC)cc34)cnc21` [XIV-22] registered an IC50 of less than 500 nM.

Compound `CC[C@@H]1CN(C(=O)Nc2ccc(CN3CCN(CC)CC3)c(C(F)(F)F)c2)Cc2cc(Oc3ccnc4[nH]c(C5CC5)cc34)cnc21` [XIV-23] registered an IC50 of less than 500 nM.

`CC[C@@H]1CN(C(=O)Nc2cnc(CN3CCN(CC)CC3)c(C(F)(F)F)c2)Cc2cc(Oc3ccnc4[nH]c(CCOC)cc34)cnc21` [XIV-26]: the IC50 was less than 500 nM.

For the compound `CC[C@@H]1CN(C(=O)Nc2ccc(CN3CCN(CC)CC3)c(C(F)(F)F)c2)Cc2cc(Oc3ccnc4[nH]c(CO)cc34)cnc21` [XIV-28], the IC50 was less than 500 nM.

`CC[C@@H]1CN(C(=O)Nc2cnc(OC3CCN(C)CC3)c(C(F)(F)F)c2)Cc2cc(Oc3ccnc4[nH]c(CCOC)cc34)cnc21` [XIV-34] showed an IC50 of less than 500 nM.

Consider `CC[C@H]1CN(C(=O)Nc2cnc(OC3CCN(C)CC3)c(C(F)(F)F)c2)Cc2cc(Oc3ccnc4[nH]c(CCOC)cc34)cnc21` [XIV-35], for which the IC50 is less than 500 nM.

The compound `CC[C@@H]1CN(C(=O)Nc2ccc(CN3CCN(CC)CC3)c(C(F)(F)F)c2)Cc2cc(Oc3ncnc4[nH]c(C5CC5)cc34)cnc21` [XIV-37] showed a 50% inhibitory concentration (IC50) of less than 500 nM.

With `CC[C@@H]1CN(C(=O)Nc2ccc(CN3CCN(CC)CC3)c(C(F)(F)F)c2)Cc2cc(Oc3c(F)cnc4[nH]c(-c5cnn(C)c5)cc34)cnc21` [XIV-39], the concentration for half-maximal inhibition (IC50) is less than 500 nM.

`CCC1CN(C(=O)Nc2ccc(CN3CCN(CC)CC3)c(C(F)(F)F)c2)Cc2cc(Oc3ccnc4[nH]c(C(C)O)cc34)cnc21` (stereo not drawn) [XIV-40]: the IC50 was less than 500 nM.

The compound `CCC1CN(C(=O)Nc2ccc(CN3CCN(CC)CC3)c(C(F)(F)F)c2)Cc2cc(Oc3ccnc4[nH]c(C(C)OC)cc34)cnc21` (stereo not drawn) [XIV-41] yielded an IC50 of 5000 to 10000 nM.

In turn, `CC[C@@H]1CN(C(=O)Nc2cnc(OC3CCN(C)CC3)c(C(F)(F)F)c2)Cc2cc(Oc3ccnc4[nH]c(C#N)cc34)cnc21` [XIV-42] gave an IC50 of less than 500 nM.

Compound `CC[C@@H]1CN(C(=O)Nc2cnc(OC3CCN(C)CC3)c(C(F)(F)F)c2)Cc2cc(Oc3ccnc4[nH]c(C5CC5)cc34)cnc21` [XIV-43] returned an IC50 of less than 500 nM.

Take `CC[C@@H]1CN(C(=O)Nc2ccc(CN3CCNCC3)c(C(F)(F)F)c2)Cc2cc(Oc3ccnc4[nH]c(CO)cc34)cnc21` [XIV-45]: the IC50 was less than 500 nM.

Regarding `CC[C@H]1CN(C(=O)Nc2ccc(CN3CCN(C)CC3)c(C(F)(F)F)c2)Cc2cc(Oc3ccnc4[nH]c(CO)cc34)cnc21` [XIV-46], the concentration for half-maximal inhibition (IC50) is less than 500 nM.

With `CC[C@H]1CN(C(=O)Nc2ccc(CN3CCN(C)CC3)c(C(F)F)c2)Cc2cc(Oc3ccnc4[nH]c(CO)cc34)cnc21` [XIV-47], the IC50 was less than 500 nM.

`CC[C@@H]1CN(C(=O)Nc2ccc(CN3CCNCC3)c(C(F)(F)F)c2)Cc2cc(Oc3ccnc4[nH]c(C5(O)COC5)cc34)cnc21` [XIV-48]: the half-maximal inhibitory concentration (IC50) is less than 500 nM.

`CC[C@@H]1CN(C(=O)Nc2ccc(CN3CCN(C)CC3)c(C(F)(F)F)c2)Cc2cc(Oc3ccnc4[nH]c(C5(O)COC5)cc34)cnc21` [XIV-50] returned a concentration for half-maximal inhibition (IC50) of less than 500 nM.

Consider `CC[C@H]1CN(C(=O)Nc2ccc(CN3CCN(C)CC3)c(C(F)(F)F)c2)Cc2cc(Oc3ccnc4[nH]c(C5(O)COC5)cc34)cnc21` [XIV-51], for which the IC50 is less than 500 nM.

`CC[C@H]1CN(C(=O)Nc2ccc(CN3CCN(C)CC3)c(C(F)F)c2)Cc2cc(Oc3ccnc4[nH]c(C5(O)COC5)cc34)cnc21` [XIV-53] had a 50% inhibitory concentration (IC50) of less than 500 nM.

In the case of `CCC1CN(C(=O)Nc2ccc(CN3CCN(CC)CC3)c(C(F)(F)F)c2)Cc2cc(Oc3ccnc4[nH]c(-c5cnn(C)c5)cc34)cnc21` (stereo not drawn) [XIV-54], the concentration for half-maximal inhibition (IC50) is less than 500 nM.

`CC[C@H]1CN(C(=O)Nc2ccc(CN3CCNCC3)c(C(F)(F)F)c2)Cc2cc(Oc3ccnc4[nH]c(CO)cc34)cnc21` [XIV-55] came in with a concentration for half-maximal inhibition (IC50) of less than 500 nM.

In turn, `CC[C@@H]1CN(C(=O)Nc2ccc(CN3CCN(C)CC3)c(C(F)(F)F)c2)Cc2cc(Oc3ccnc4[nH]c(CO)cc34)cnc21` [XIV-56] had an IC50 of less than 500 nM.

Compound `CC[C@H]1CN(C(=O)Nc2ccc(CN3CCNCC3)c(C(F)(F)F)c2)Cc2cc(Oc3ccnc4[nH]c(C5CC5)cc34)cnc21` [XIV-58] yielded an IC50 of less than 500 nM.

The compound `CC[C@H]1CN(C(=O)Nc2ccc(CN3CCN(C)CC3)c(C(F)F)c2)Cc2cc(Oc3ccnc4[nH]c(C5CC5)cc34)cnc21` [XIV-59] came in with an IC50 of less than 500 nM.

The compound `CC[C@H]1CN(C(=O)Nc2ccc(CN3CCN(CCO)CC3)c(C(F)(F)F)c2)Cc2cc(Oc3ccnc4[nH]c(C5CC5)cc34)cnc21` [XIV-60] yielded an IC50 of less than 500 nM.

With `CCC1CN(C(=O)Nc2ccc(CN3CCN(CC)CC3)c(C(F)(F)F)c2)Cc2cc(Oc3ccnc4[nH]c(C5=CCOCC5)cc34)cnc21` (stereo not drawn) [XIV-61], the IC50 is less than 500 nM.

Compound `CCC1CN(C(=O)Nc2ccc(CN3CCN(CC)CC3)c(C(F)(F)F)c2)Cc2cc(Oc3ccnc4[nH]c(C5=CCOC5)cc34)cnc21` (stereo not drawn) [XIV-62] returned a half-maximal inhibitory concentration (IC50) of less than 500 nM.

`CCC1CN(C(=O)Nc2ccc(CN3CCN(CC)CC3)c(C(F)(F)F)c2)Cc2cc(Oc3ccnc4[nH]c(C5CCOC5)cc34)cnc21` (stereo not drawn) [XIV-63] gave an IC50 of less than 500 nM.

Consider `CC[C@@H]1CN(C(=O)Nc2ccc(CN3CCNCC3)c(C(F)(F)F)c2)Cc2cc(Oc3ccnc4[nH]c(C5CC5)cc34)cnc21` [XIV-64], for which the IC50 is less than 500 nM.

As to `CC[C@@H]1CN(C(=O)Nc2ccc(CN3CCN(CCO)CC3)c(C(F)(F)F)c2)Cc2cc(Oc3ccnc4[nH]c(C5CC5)cc34)cnc21` [XIV-65], the IC50 was less than 500 nM.

As to `CC[C@@H]1CN(C(=O)Nc2cnc(O[C@H]3CCN(C)C3)c(C(F)(F)F)c2)Cc2cc(Oc3ccnc4[nH]c(C)cc34)cnc21` [XIV-67], the IC50 was more than 10000 nM.

`CC[C@@H]1CN(C(=O)Nc2cnc(O[C@@H]3CCN[C@H](C)C3)c(C(F)(F)F)c2)Cc2cc(Oc3ccnc4[nH]c(C)cc34)cnc21` [XIV-69] showed a half-inhibitory concentration (IC50) of less than 500 nM.

As for `CCC1CN(C(=O)Nc2ccc(CN3CCN(CC)CC3)c(C(F)(F)F)c2)Cc2cc(Oc3ccnc4[nH]c(C5CCOCC5)cc34)cnc21` (stereo not drawn) [XIV-70], the IC50 is less than 500 nM.

In the case of `CC[C@@H]1CN(C(=O)Nc2cnc(O[C@H]3CCN[C@@H](C)C3)c(C(F)(F)F)c2)Cc2cc(Oc3ccnc4[nH]c(C)cc34)cnc21` [XIV-71], the IC50 lay in the range of 500 to 5000 nM.

`CC[C@H]1CN(C(=O)Nc2ccc(CN3CCN(C)CC3)c(C(F)(F)F)c2)Cc2cc(Oc3ccnc4[nH]c(C5CC5)cc34)cnc21` [XIV-72]: the IC50 is less than 500 nM.

The compound `CC[C@@H]1CN(C(=O)Nc2ccc(CN3CCN(C)CC3)c(C(F)(F)F)c2)Cc2cc(Oc3ccnc4[nH]c(C5CC5)cc34)cnc21` [XIV-73] came in with an IC50 of less than 500 nM.

As for `C[C@@H]1CN(C(=O)Nc2ccc(CN3CCN(C)CC3)c(C(F)(F)F)c2)Cc2cc(Oc3ccnc4[nH]c(CO)cc34)cnc21` [XIV-75], the IC50 was less than 500 nM.

The compound `CC[C@@H]1CN(C(=O)Nc2ccc(CN3CCN(CC)CC3)c(C(F)(F)F)c2)Cc2cc(Oc3ccnc4[nH]c(C5(O)CC5)cc34)cnc21` [XIV-76] had a half-inhibitory concentration (IC50) of less than 500 nM.

Turning to `CC[C@@H]1CN(C(=O)Nc2cnc(OC3CCN(C)CC3)c(C(F)(F)F)c2)Cc2cc(Oc3ccnc4[nH]c(C5(O)CC5)cc34)cnc21` [XIV-77], the IC50 is less than 500 nM.

For `C[C@H]1CN(C(=O)Nc2ccc(CN3CCN(C)CC3)c(C(F)(F)F)c2)Cc2cc(Oc3ccnc4[nH]c(CO)cc34)cnc21` [XIV-78], the concentration for half-maximal inhibition (IC50) is less than 500 nM.

Consider `CC[C@H]1CN(C(=O)Nc2ccc(CN3CCN(CC)CC3)c(C(F)(F)F)c2)Cc2cc(Oc3ccnc4[nH]c(C5(O)CC5)cc34)cnc21` [XIV-79], for which the IC50 was less than 500 nM.

Compound `C[C@H]1CN(C(=O)Nc2ccc(CN3CCN(C)CC3)c(C(F)(F)F)c2)Cc2cc(Oc3ccnc4[nH]c(C5CC5)cc34)cnc21` [XIV-81] had an IC50 of less than 500 nM.

As for `CC[C@H]1CN(C(=O)Nc2ccc(CN3CCN(C)CC3)c(C(F)(F)F)c2)Cc2cc(Oc3ccnc4[nH]c(C(N)=O)cc34)cnc21` [XIV-84], the IC50 was less than 500 nM.

Regarding `CC[C@H]1CN(C(=O)Nc2ccc(CN3CCN(C)CC3)c(C(F)(F)F)c2)Cc2cc(Oc3ccnc4[nH]c(C(=O)NC)cc34)cnc21` [XIV-85], the IC50 is less than 500 nM.

Compound `C[C@H]1CN(C(=O)Nc2ccc(CN3CCN(C)CC3)c(C(F)(F)F)c2)Cc2cc(Oc3ccnc4[nH]c(C(N)=O)cc34)cnc21` [XIV-86] yielded an IC50 of less than 500 nM.

For orientation: IC50 means the point on the concentration scale where inhibition reaches its midpoint. The low end stands for greater potency in that assay, the high end for weaker potency in that assay.

These data come from patent publication US20210139484A1, “DIHYDROISOQUINOLINE-2(1H)-CARBOXAMIDE AND RELATED COMPOUNDS AND THEIR USE IN TREATING MEDICAL CONDITIONS” (GOSSAMER BIO SERVICES, INC., priority 2018, published 2021).
